Results on 17 molecules are retold here after US11247990B1, “Bicyclic fused pyridine compounds as inhibitors of TAM kinases” (ARRAY BIOPHARMA INC., priority 2017, dated 2022).

Common to all, as to conditions: averaged IC50
Assay [1] has as its target His-tagged recombinant human AXL cytoplasmic domain (Homo sapiens (Human), UniProt P30530). The experiment in a line: AXL Enzyme Assay (LanthaScreen Eu Kinase Binding, TR-FRET). The essentials:
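LanthaScreen Eu kinase binding format, incubated 60 min at 22 °C and read by TR-FRET dual-wavelength emission ratio as percent of control. IC50 taken where a 4-parameter logistic fit crosses 50 POC.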

For assay [2], the target named is His-tagged recombinant human MER cytoplasmic domain (Homo sapiens (Human), UniProt Q12866). The experiment in a line: MER Enzyme Assay (LanthaScreen Eu Kinase Binding, TR-FRET). The essentials:
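LanthaScreen Eu kinase binding (tracer displacement) assay with His-tagged human MER cytoplasmic domain, 60 min incubation at 22 °C. TR-FRET dual-wavelength emission ratio converted to percent of control; IC50 is where the 4-parameter logistic fit crosses 50 POC.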
Background: In TR-FRET formats the signal depends on donor and acceptor labels being close together.

Assay [3] has as its target GST-tagged recombinant human TYRO3 kinase domain (Homo sapiens (Human), UniProt Q06418). The assay is described as follows: TYRO3 Enzyme Assay (LanthaScreen Eu Kinase Binding, TR-FRET). The method, boiled down:
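LanthaScreen Eu binding (tracer displacement) format read by TR-FRET after 60 min at 22 °C. Emission ratio converted to percent of control; IC50 taken where a 4-parameter logistic fit crosses 50 POC.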

Structures are written as SMILES.

GST-tagged recombinant human TYRO3 kinase domain, sequence (Q06418 518-790): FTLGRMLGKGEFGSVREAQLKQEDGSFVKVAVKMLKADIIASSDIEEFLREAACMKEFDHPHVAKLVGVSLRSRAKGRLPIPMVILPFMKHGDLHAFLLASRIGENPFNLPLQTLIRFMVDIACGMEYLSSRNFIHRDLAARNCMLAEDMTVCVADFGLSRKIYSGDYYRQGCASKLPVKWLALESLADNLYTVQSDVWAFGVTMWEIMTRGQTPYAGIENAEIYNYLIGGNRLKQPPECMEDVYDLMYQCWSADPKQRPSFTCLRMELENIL
His-tagged recombinant human AXL cytoplasmic domain, sequence (P30530 473-894): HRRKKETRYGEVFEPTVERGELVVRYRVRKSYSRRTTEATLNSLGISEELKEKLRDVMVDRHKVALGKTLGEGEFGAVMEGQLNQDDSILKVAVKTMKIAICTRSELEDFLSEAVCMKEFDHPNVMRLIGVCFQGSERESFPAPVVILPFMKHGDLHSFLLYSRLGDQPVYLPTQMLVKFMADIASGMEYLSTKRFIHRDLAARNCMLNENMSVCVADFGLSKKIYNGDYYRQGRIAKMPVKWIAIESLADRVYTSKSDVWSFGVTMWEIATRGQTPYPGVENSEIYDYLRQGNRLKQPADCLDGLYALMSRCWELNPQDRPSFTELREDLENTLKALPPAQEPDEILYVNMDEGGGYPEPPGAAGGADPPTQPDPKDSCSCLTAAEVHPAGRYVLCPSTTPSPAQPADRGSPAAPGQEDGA
His-tagged recombinant human MER cytoplasmic domain, sequence (Q12866 527-999): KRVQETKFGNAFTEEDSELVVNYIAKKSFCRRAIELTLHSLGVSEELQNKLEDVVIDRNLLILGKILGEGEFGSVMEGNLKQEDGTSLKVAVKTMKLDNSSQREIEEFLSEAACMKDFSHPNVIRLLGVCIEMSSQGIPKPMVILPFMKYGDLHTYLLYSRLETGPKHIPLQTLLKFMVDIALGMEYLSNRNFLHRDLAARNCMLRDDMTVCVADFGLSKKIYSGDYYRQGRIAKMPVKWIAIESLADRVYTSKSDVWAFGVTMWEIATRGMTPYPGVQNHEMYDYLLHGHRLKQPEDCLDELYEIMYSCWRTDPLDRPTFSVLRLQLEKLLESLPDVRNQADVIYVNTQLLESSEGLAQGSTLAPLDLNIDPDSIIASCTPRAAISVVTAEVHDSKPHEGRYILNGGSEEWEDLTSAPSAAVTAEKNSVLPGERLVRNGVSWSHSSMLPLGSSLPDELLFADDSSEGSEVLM

Regarding `CNc1cc2c(cn1)c(-c1cnn(C(CO)CO)c1)nn2[C@H]1CC[C@@H](Oc2ccccc2F)CC1` [Example 408, 2-(4-(1-((1s,4s)-4-(2-fluorophenoxy)cyclohexyl)-6-(methylamino)-1H-pyrazolo[4,3-c]pyridin-3-yl)-1H-pyrazol-1-yl)propane-1,3-diol], the IC50 (usually the midpoint of a concentration-inhibition curve) was < 0.01 µM in assay [1], < 0.01 µM in assay [2] and 0.01 to 0.1 µM in assay [3].

As for `CNc1cc2c(cn1)c(-c1cnn(C(CO)CO)c1)nn2[C@H]1CC[C@@H](Oc2cccc(F)c2)CC1` [Example 409, 2-(4-(1-((1s,4s)-4-(3-fluorophenoxy)cyclohexyl)-6-(methylamino)-1H-pyrazolo[4,3-c]pyridin-3-yl)-1H-pyrazol-1-yl)propane-1,3-diol], the values for the IC50 in assay [1], in assay [2] and in assay [3] were < 0.01 µM, < 0.01 µM and 0.01 to 0.1 µM, respectively.

On to `CNc1cc2c(cn1)c(-c1cnn(C(CO)CO)c1)nn2[C@H]1CC[C@@H](Oc2ccc(F)cc2)CC1` [Example 410, 2-(4-(1-((1s,4s)-4-(4-fluorophenoxy)cyclohexyl)-6-(methylamino)-1H-pyrazolo[4,3-c]pyridin-3-yl)-1H-pyrazol-1-yl)propane-1,3-diol], for which the concentration for half-maximal inhibition (IC50) in assay [1] was < 0.01 µM; in assay [2], < 0.01 µM; in assay [3], 0.01 to 0.1 µM.

As for `CCNc1cc2c(cn1)c(-c1cnn(C(CO)CO)c1)nn2[C@H]1CC[C@@H](Oc2ccc(F)cc2F)CC1` [Example 414, 2-(4-(1-((1s,4s)-4-(2,4-difluorophenoxy)cyclohexyl)-6-(ethylamino)-1H-pyrazolo[4,3-c]pyridin-3-yl)-1H-pyrazol-1-yl)propane-1,3-diol], the IC50 was < 0.01 µM in assay [1], < 0.01 µM in assay [2] and 0.01 to 0.1 µM in assay [3].

As to `CCNc1cc2c(cn1)c(-c1cnn(C(CO)CO)c1)nn2[C@H]1CC[C@@H](Oc2cccc(F)c2F)CC1` [Example 415, 2-(4-(1-((1s,4s)-4-(2,3-difluorophenoxy)cyclohexyl)-6-(ethylamino)-1H-pyrazolo[4,3-c]pyridin-3-yl)-1H-pyrazol-1-yl)propane-1,3-diol], the IC50 in assay [1], in assay [2] and in assay [3] was < 0.01 µM each time.

For `CNc1cc2c(cn1)c(-c1cnn(C[C@@H](O)CO)c1)nn2[C@H]1CC[C@@H](Oc2ccccc2C(F)(F)F)CC1` [Example 419, (R)-3-(4-(6-(methylamino)-1-((1s,4S)-4-(2-(trifluoromethyl)phenoxy)-cyclohexyl)-1H-pyrazolo[4,3-c]pyridin-3-yl)-1H-pyrazol-1-yl)propane-1,2-diol], the values for the concentration for half-maximal inhibition (IC50) in assay [1], in assay [2] and in assay [3] were < 0.01 µM, < 0.01 µM and 0.01 to 0.1 µM, respectively.

`CCNc1cc2c(cn1)c(-c1cnn(C[C@@H](O)CO)c1)nn2[C@H]1CC[C@@H](Oc2cccc(Cl)c2)CC1` [Example 422]: the IC50 in assay [1] is < 0.01 µM; in assay [2] it was < 0.01 µM; in assay [3], 0.01 to 0.1 µM.

For `CCNc1cc2c(cn1)c(-c1cnn(C[C@@H](O)CO)c1)nn2[C@H]1CC[C@@H](Oc2ccc(F)cc2F)CC1` [Example 423, (R)-3-(4-(1-((1s,4S)-4-(2,4-difluorophenoxy)cyclohexyl)-6-(ethylamino)-1H-pyrazolo[4,3-c]pyridin-3-yl)-1H-pyrazol-1-yl)propane-1,2-diol], the results for the IC50 in assay [1], in assay [2] and in assay [3] were < 0.01 µM, < 0.01 µM and 0.01 to 0.1 µM, respectively.

Consider `CCNc1cc2c(cn1)c(-c1cnn(C[C@@H](O)CO)c1)nn2[C@H]1CC[C@@H](Oc2cccc(F)c2F)CC1` [Example 429, (R)-3-(4-(1-((1s,4S)-4-(2,3-difluorophenoxy)cyclohexyl)-6-(ethylamino)-1H-pyrazolo[4,3-c]pyridin-3-yl)-1H-pyrazol-1-yl)propane-1,2-diol], for which the 50% inhibitory concentration (IC50) in assay [1], in assay [2] and in assay [3] was < 0.01 µM in each case.

Regarding `CCNc1cc2c(cn1)c(-c1cnn(CC(C)(O)CO)c1)nn2[C@H]1CC[C@@H](Oc2ccccc2F)CC1` (stereo partly drawn) [Example 431, 3-(4-(6-(ethylamino)-1-((1s,4s)-4-(2-fluorophenoxy)cyclohexyl)-1H-pyrazolo[4,3-c]pyridin 3-yl)-1H-pyrazol-1-yl)-2-methylpropane-1,2-diol], the results for the IC50 in assay [1], in assay [2] and in assay [3] were < 0.01 µM, < 0.01 µM and 0.01 to 0.1 µM, respectively.

Consider `CNc1cc2c(cn1)c(-c1cnn(C[C@@H](N)CO)c1)nn2[C@H]1CC[C@@H](Oc2ccccc2F)CC1` [Example 432, (R)-2-amino-3-(4-(1-((1s,4S)-4-(2-fluorophenoxy)cyclohexyl)-6-(methylamino)-1H-pyrazolo[4,3-c]pyridin-3-yl)-1H-pyrazol-1-yl)propan-1-ol], for which the IC50 in assay [1], in assay [2] and in assay [3] was < 0.01 µM each time.

Regarding `CNc1cc2c(cn1)c(-c1cnn(C[C@H](N)CO)c1)nn2[C@H]1CC[C@@H](Oc2ccccc2F)CC1` [Example 433, (S)-2-amino-3-(4-(1-((1s,4S)-4-(2-fluorophenoxy)cyclohexyl)-6-(methylamino)-1H-pyrazolo[4,3-c]pyridin-3-yl)-1H-pyrazol-1-yl)propan-1-ol], the IC50 in assay [1], in assay [2] and in assay [3] was < 0.01 µM in each case.

For `CCNc1cc2c(cn1)c(-c1cnn(C[C@@H](O)CO)c1)nn2[C@H]1CC[C@@H](Oc2cccc(Cl)c2F)CC1` [Example 434, (R)-3-(4-(1-((1s,4S)-4-(3-chloro-2-fluorophenoxy)cyclohexyl)-6-(ethylamino)-1H-pyrazolo[4,3-c]pyridin-3-yl)-1H-pyrazol-1-yl)propane-1,2-diol], the IC50 in assay [1], in assay [2] and in assay [3] was < 0.01 µM in each case.

`CCNc1cc2c(cn1)c(-c1cnn(C[C@@H](O)CO)c1)nn2[C@H]1CC[C@@H](Oc2ccc(F)cc2Cl)CC1` [Example 436, (R)-3-(4-(1-((1s,4S)-4-(2-chloro-4-fluorophenoxy)cyclohexyl)-6-(ethylamino)-1H-pyrazolo[4,3-c]pyridin-3-yl)-1H-pyrazol-1-yl)propane-1,2-diol]: the IC50 in assay [1] is < 0.01 µM; in assay [2] it was < 0.01 µM; in assay [3] it was 0.01 to 0.1 µM.

As for `CCNc1cc2c(cn1)c(-c1cnn(C[C@@H](O)CO)c1)nn2[C@H]1CC[C@@H](Oc2cccc(F)c2Cl)CC1` [Example 437, (R)-3-(4-(1-((1s,4S)-4-(2-chloro-3-fluorophenoxy)cyclohexyl)-6-(ethylamino)-1H-pyrazolo[4,3-c]pyridin-3-yl)-1H-pyrazol-1-yl)propane-1,2-diol], the IC50 is < 0.01 µM in assay [1], < 0.01 µM in assay [2] and 0.01 to 0.1 µM in assay [3].

Turning to `CCNc1cc2c(cn1)c(-c1cnn(C[C@@H](O)CO)c1)nn2[C@H]1CC[C@@H](Oc2cccc(Cl)c2Cl)CC1` [Example 439], the IC50 is < 0.01 µM in assay [1], < 0.01 µM in assay [2] and 0.01 to 0.1 µM in assay [3].

Turning to `CCNc1cc2c(cn1)c(-c1cnn(C[C@H](O)C(C)(C)O)c1)nn2[C@H]1CC[C@@H](Oc2ccccc2F)CC1` [Example 440, (S)-1-(4-(6-(ethylamino)-1-((1s,4R)-4-(2-fluorophenoxy)cyclohexyl)-1H-pyrazolo[4,3-c]pyridin-3-yl)-1H-pyrazol-1-yl)-3-methylbutane-2,3-dioI], the figures for the IC50 in assay [1], in assay [2] and in assay [3] were < 0.01 µM, < 0.01 µM and 0.01 to 0.1 µM, respectively.
